pEC50, pIC50: −log10 of the molar value. Read-outs that look alike come from different tables or passages of the source. One block for each compound: values may come before it.
Columns and labels:
MDA-MB-231 cells [1] = test: Dose-response viability assay (PrestoBlue), MDA-MB-231; assay type: cell-based, human; details: for decrease in antiproliferative activity relative to 11a: MDA-MB-231
[2] = cited from earlier work
[3] = cited from earlier work; for % F / Cmax / Tmax: PO
MDA-MB-231 cells [4] = test: cells; details: Homo sapiens, MDA-MB-231, 24 h, read-out: IC50, MDA-MB-231 Cell Migration After 24h
[5] = system: Tg(brn3c:mGFP) zebrafish embryos; assay type: in vivo; details: 1–10 μM (compatible with embryo survival)
BLK = BLK (Homo sapiens, UniProt P51451); test: biochemical
FRK/PTK5 = FRK/PTK5 (Homo sapiens, UniProt P42685); test: biochemical
LCK = LCK (Homo sapiens, UniProt P06239); test: Kinase screening assay, 33P radioisotope (Reaction Biology); assay type: biochemical; details: recombinant kinase, 10 μM ATP
HCK = HCK (Homo sapiens, UniProt P08631); test: biochemical
LYN = LYN (Homo sapiens, UniProt P07948); test: biochemical
MCF7 cells [6] = test: Dose-response viability assay (PrestoBlue), MCF7; assay type: cell-based; details: Homo sapiens, MCF7, 120 h; 5 d, PrestoBlue cell viability
[7] = system: phospho-SRC^Y416 and phospho-FAK in MDA-MB-231 cells
CYP2D6 = CYP2D6 (Homo sapiens, UniProt P10635); details: 10 μM
MCF7 cells [8] = system: MCF7 cells
in vivo = details: female, CD1, mouse, blood/plasma, 10 mg/kg
CYP2C19 = CYP2C19 (Homo sapiens, UniProt P33261); details: 10 μM
physchem = details: pH 7.4
CYP3A4 = CYP3A4 (Homo sapiens, UniProt P08684); details: 10 μM
in vitro [9] = details: mouse, cryopreserved pooled primary hepatocytes
in vitro [10] = details: human, cryopreserved pooled primary hepatocytes
CYP1A2 = target: T1, CYP1A2 (Homo sapiens, UniProt P05177); details: 10 μM
T1 sequence (P05177 1-516): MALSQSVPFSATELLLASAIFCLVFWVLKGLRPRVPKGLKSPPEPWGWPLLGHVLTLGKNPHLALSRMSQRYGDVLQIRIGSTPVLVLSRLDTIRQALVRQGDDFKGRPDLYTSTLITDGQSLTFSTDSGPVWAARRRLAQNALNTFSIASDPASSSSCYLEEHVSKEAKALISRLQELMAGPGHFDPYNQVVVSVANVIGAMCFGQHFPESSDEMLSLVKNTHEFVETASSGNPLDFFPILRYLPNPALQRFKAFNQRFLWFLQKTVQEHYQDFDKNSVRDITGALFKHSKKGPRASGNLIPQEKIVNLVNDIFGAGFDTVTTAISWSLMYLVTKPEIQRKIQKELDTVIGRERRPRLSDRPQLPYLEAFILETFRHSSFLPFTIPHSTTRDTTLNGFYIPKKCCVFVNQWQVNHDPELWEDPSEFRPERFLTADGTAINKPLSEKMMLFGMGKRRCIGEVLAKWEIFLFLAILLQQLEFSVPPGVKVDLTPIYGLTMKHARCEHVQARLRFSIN

CYP2C9 = CYP2C9 (Homo sapiens, UniProt P11712); details: 10 μM
[11] = system: SYF murine embryonic fibroblasts (SRC-/-, YES-/-, FYN-/-); test: Dose-response proliferation study in SYF cells; assay type: cell-based, mouse; details: compared with dasatinib
ABL = ABL (Homo sapiens, UniProt P00519); test: Kinase screening assay, 33P radioisotope (Reaction Biology)
MCF7 cells [12] = test: Time-lapse cell growth assay (IncuCyte ZOOM); assay type: cell-based, human; details: for antiproliferative mode of action by time-lapse imaging: 1–100 μM
FGR = FGR (Homo sapiens, UniProt P09769); test: Kinase screening assay, 33P radioisotope (Reaction Biology); assay type: biochemical
SRC = SRC (Homo sapiens, UniProt P12931); test: as above
[13] = human, rat, 24 h
[14] = 5 mg/kg ref Kamath et al., 2008
[15] = recombinant kinase, 10 μM ATP, read-out: IC50 (FGR)

Sequence of LCK (P06239 whole entry): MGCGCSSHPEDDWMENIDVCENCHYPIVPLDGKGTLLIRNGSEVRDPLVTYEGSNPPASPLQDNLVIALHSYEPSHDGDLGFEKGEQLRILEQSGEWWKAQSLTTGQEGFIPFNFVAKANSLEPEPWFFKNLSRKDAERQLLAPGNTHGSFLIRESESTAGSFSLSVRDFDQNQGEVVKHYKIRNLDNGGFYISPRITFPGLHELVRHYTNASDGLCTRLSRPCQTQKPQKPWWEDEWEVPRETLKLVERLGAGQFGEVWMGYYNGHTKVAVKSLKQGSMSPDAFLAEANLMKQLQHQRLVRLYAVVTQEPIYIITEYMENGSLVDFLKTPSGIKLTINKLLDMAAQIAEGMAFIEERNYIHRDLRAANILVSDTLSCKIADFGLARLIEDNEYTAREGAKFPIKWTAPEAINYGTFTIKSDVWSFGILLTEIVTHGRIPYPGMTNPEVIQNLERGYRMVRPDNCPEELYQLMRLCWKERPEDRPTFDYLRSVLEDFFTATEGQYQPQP
Sequence of FRK/PTK5 (P42685 whole entry): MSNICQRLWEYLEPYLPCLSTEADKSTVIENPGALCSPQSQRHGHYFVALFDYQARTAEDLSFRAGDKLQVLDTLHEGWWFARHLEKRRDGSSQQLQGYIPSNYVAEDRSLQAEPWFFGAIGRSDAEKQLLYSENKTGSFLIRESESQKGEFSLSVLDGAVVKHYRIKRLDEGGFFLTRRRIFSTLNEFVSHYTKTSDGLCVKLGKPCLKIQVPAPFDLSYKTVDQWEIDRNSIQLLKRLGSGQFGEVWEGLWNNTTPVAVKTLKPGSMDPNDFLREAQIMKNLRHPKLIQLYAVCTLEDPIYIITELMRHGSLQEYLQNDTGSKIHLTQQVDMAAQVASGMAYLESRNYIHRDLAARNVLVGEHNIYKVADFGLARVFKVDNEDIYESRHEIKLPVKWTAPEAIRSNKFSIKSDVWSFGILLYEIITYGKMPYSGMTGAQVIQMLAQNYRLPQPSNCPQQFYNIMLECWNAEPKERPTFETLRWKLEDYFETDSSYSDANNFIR
Sequence of FGR (P09769 whole entry): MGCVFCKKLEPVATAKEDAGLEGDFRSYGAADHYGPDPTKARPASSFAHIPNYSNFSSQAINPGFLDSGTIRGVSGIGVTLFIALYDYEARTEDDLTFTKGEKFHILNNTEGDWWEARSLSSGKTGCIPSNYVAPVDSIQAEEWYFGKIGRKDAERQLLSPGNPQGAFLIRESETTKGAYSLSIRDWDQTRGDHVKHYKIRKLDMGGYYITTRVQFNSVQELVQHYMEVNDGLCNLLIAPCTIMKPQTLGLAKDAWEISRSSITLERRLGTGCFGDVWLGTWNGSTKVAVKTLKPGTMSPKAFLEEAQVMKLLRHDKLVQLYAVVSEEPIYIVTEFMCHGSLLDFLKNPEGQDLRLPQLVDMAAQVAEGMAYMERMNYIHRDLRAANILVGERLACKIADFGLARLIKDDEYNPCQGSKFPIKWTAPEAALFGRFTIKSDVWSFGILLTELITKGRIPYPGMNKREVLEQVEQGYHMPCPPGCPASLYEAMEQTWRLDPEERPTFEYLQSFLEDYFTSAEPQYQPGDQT
Sequence of HCK (P08631 whole entry): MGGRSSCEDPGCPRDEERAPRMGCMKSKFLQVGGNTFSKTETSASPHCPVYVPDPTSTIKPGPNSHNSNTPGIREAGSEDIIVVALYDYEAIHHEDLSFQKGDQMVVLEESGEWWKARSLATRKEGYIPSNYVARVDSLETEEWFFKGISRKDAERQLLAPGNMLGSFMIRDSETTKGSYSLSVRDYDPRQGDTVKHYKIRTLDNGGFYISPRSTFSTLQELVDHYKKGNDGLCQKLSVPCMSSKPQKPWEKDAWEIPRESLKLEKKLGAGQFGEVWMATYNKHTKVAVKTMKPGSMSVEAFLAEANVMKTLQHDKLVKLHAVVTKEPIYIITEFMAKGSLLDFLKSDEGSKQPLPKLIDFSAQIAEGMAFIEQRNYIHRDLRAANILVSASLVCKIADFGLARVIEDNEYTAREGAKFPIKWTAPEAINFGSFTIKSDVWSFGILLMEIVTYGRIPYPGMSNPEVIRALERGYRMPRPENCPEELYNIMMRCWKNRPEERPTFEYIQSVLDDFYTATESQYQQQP
Sequence of LYN (P07948 whole entry): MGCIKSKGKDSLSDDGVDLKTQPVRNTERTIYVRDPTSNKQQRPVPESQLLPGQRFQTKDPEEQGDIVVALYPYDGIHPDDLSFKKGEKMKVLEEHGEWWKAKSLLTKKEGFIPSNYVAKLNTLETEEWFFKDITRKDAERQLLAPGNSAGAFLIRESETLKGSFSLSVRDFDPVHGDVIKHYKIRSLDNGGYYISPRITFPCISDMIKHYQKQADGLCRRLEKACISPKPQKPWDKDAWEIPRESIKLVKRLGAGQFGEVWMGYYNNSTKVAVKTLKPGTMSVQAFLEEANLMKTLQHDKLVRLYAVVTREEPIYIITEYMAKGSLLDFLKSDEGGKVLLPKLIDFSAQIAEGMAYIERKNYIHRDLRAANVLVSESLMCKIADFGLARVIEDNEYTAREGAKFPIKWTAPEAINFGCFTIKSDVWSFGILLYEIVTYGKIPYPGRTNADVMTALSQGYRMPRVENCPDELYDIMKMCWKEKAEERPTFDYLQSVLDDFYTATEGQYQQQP
Sequence of BLK (P51451 whole entry): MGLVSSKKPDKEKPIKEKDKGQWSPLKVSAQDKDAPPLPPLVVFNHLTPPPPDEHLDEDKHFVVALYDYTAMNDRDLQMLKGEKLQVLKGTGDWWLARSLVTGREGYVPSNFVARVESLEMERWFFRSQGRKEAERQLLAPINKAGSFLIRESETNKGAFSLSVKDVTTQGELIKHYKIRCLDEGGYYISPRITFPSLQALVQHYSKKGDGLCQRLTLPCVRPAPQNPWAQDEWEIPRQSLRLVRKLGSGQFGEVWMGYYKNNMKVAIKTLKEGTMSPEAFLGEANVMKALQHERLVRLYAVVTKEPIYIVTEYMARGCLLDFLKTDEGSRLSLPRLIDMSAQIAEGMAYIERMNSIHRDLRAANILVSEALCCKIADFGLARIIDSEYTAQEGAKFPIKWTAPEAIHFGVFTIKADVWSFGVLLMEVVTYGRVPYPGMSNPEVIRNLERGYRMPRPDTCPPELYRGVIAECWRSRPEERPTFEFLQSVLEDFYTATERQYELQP
Sequence of SRC (P12931 whole entry): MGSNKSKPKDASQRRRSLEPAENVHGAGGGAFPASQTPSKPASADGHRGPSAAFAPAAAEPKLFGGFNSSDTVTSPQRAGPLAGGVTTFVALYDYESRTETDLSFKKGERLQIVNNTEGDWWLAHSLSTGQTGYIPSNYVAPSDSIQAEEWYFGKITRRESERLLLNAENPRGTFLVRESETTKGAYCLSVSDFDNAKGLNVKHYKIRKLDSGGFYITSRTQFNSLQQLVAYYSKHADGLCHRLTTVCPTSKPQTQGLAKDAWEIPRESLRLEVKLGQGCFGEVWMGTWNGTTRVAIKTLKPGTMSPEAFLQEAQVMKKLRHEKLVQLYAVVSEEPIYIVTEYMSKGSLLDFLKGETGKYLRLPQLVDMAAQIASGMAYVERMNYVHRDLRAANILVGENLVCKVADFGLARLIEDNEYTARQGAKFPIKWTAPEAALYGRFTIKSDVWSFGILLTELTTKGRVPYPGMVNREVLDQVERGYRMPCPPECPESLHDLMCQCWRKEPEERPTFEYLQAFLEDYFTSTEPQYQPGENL
Sequence of CYP3A4 (P08684 whole entry): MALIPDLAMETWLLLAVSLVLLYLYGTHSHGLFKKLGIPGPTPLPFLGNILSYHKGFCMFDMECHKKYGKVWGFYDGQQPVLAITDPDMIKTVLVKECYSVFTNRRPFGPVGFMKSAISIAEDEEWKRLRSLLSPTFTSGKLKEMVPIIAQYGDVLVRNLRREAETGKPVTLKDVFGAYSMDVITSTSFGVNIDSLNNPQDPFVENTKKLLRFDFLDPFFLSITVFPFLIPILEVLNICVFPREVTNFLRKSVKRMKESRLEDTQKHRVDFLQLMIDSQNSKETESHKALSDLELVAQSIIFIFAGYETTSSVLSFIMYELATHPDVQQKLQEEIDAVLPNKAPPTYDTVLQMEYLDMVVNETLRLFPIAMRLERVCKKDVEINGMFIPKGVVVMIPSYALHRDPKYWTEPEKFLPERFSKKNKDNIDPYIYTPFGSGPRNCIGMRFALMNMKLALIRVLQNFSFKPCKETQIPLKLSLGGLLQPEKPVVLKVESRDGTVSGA
Sequence of CYP2C9 (P11712 whole entry): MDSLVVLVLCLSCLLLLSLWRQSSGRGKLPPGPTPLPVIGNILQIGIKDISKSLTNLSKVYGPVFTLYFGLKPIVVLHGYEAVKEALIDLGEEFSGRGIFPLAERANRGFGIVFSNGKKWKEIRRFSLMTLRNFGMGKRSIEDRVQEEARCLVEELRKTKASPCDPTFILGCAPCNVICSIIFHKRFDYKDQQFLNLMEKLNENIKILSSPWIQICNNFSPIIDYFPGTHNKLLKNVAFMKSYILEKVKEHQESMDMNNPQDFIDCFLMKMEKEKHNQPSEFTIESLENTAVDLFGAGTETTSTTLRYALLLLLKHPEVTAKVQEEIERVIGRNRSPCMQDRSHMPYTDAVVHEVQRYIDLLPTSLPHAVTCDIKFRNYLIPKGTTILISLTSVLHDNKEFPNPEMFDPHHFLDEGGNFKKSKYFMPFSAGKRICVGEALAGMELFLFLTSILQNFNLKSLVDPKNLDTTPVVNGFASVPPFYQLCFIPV

SMILES: COc1cc(-c2ccn(CCN3CCC(N(C)C)CC3)n2)ccc1NC(=O)OC(C)(C)C [12f]
- decrease in antiproliferative activity relative to 11a (MDA-MB-231 cells [1]): > 3000 fold

SMILES: Cc1nc(Nc2ncc(C(=O)Nc3c(C)cccc3Cl)s2)cc(N2CCN(CCO)CC2)n1.O [dasatinib]
- solubility in water ([2]; pH = 2.6 ref 56): 18 mg/mL
- solubility in water ([2]; pH = 7 ref 56): < 0.001 mg/mL
- T1/2 ([3]; IV, 10 mg/kg, mice ref Kamath et al., 2008 (58)): 0.9 h
- CL ([3]; IV, 10 mg/kg, mice ref Kamath et al., 2008): 61.7 mL/min/kg
- % F [3, 14]: 17%
- Cmax [3, 14]: 104 ng/mL
- Tmax [3, 14]: 2 h
- % F ([3]; 5 mg/kg ref Luo et al., 2006): 45%
- Cmax ([3]; 5 mg/kg ref Luo et al., 2006): 58 ng/mL
- Tmax ([3]; 5 mg/kg ref Luo et al., 2006): 1 h
- pIC50 (MDA-MB-231 cells [4]): 8.08
- neuromast migration [5]: did not inhibit the migration of neuromasts

- pIC50 (BLK): 5.55
- pIC50 (FRK/PTK5): 5.79
- pIC50 (LCK): 5.81
- pIC50 (HCK): 5.22
- pIC50 (LYN): 5.97
SMILES: Cc1ccc(-c2nn(CCN3CCC(CN(C)C)CC3)c3ncnc(N)c23)cc1 [7j]

- pEC50 (MCF7 cells [6]): 5.15
SMILES: COc1cc(-c2nn(CCN3CCC(N(C)C)CC3)c3ncnc(N)c23)ccc1NC(=O)CCc1ccccc1 [12k, N-[4-[4-amino-1-[2-[4-(dimethylamino)-1-piperidyl]ethyl]pyrazolo[3,4-d]pyrimidin-3-yl]-2-methoxy-phenyl]-3-phenyl-propanamide]

SMILES: COc1cc(-c2nn(CCN3CCC(N(C)C)CC3)c3ncnc(N)c23)ccc1NC(=O)OC(C)(C)C [11a, tert-Butyl N-[4-[4-amino-1-[2-[4-(dimethylamino)-1-piperidyl]ethyl]pyrazolo[3,4-d]pyrimidin-3-yl]-2-methoxy-phenyl]carbamate]
- concentration with complete inhibition of phosphorylation of SRC and FAK [7]: 100 nM
- inhibition of CYP2D6 (CYP2D6): ≤ 0%
- concentration giving significant apoptotic cell death (caspase 3/7 activity) (MCF7 cells [8]): ≥ 100 nM
- AUC (in vivo; iv): 2070 ng·h/mL
- clearance (in vivo; iv): 72.3 mL/min/kg
- AUC (in vivo; po): 530 ng·h/mL
- Cmax (in vivo; po): 100 ng/mL
- Tmax (in vivo; po): 2 h
- inhibition of CYP2C19 (CYP2C19): ≤ 0%
- solubility (physchem): > 100 mg/mL
- inhibition of CYP3A4 (CYP3A4): ≤ 0%
- half-life at 3 µM (in vitro [9]): 1.83 h
- hepatocyte CLint at 3 µM (in vitro [9]): 12.5 µL/min/1e6 cells
- hepatocyte CLint at 3 µM (in vitro [10]): 1.84 µL/min/1e6 cells
- inhibition of CYP1A2 (CYP1A2): 24.54%
- inhibition of CYP2C9 (CYP2C9): ≤ 0%

- pEC50 (MDA-MB-231 cells [1]; read-out: EC50 (MDA-MB-231), 5 d, PrestoBlue cell viability): 4.78
SMILES: CN(C)C1CCN(CCn2nc(-c3ccc(NC(=O)OC(C)(C)C)nc3)c3c(N)ncnc32)CC1 [12u]

- pIC50 (ABL): 6.72
SMILES: COc1cc(-c2nn(CCN3CCC(CN(C)C)CC3)c3ncnc(N)c23)ccc1NC(=O)OC(C)(C)C [11b]
- antiproliferative activity in SYF cells [11]: significantly less antiproliferative activity in SYF cells than dasatinib

SMILES: CN(C)CC1CCN(CCn2nc(-c3cnc4[nH]ccc4c3)c3c(N)ncnc32)CC1 [9d, 1-[2-[4-(Dimethylaminomethyl)-1-piperidyl]ethyl]-3-(1H-pyrrolo[2,3-b]pyridin-5-yl)pyrazolo[3,4-d]pyrimidin-4-amine]
- antiproliferative mode of action by time-lapse imaging (MCF7 cells [12]): induced cell death

- half-life at 3 µM (in vitro [9]): 0.0233 h
- hepatocyte CLint at 3 µM (in vitro [9]): 983 µL/min/1e6 cells
- half-life at 3 µM (in vitro [10]): 9.7 min
- hepatocyte CLint at 3 µM (in vitro [10]): 150 µL/min/1e6 cells
SMILES: O=c1ccc2ccc(O)cc2o1 [umbelliferone, reference compound]

- pIC50 (FGR; [15]): 5.67
- pIC50 (FRK/PTK5): 5.57
- pIC50 (LCK): 5.07
- pIC50 (HCK): 5.17
- pIC50 (LYN): 5.64
SMILES: CCOC(Cn1nc(-c2cnc3[nH]ccc3c2)c2c(N)ncnc21)OCC [8d, 1-(2,2-Diethoxyethyl)-3-(1H-pyrrolo[2,3-b]pyridin-5-yl)pyrazolo[3,4-d]pyrimidin-4-amine]
- antiproliferative mode of action by time-lapse imaging (MCF7 cells [12]): halted cell division

- pEC50 (MCF7 cells [6]): 4.31
SMILES: Cc1ccc(-c2nn(CCN3CCCCC3)c3ncnc(N)c23)cc1 [7a]

- pIC50 (BLK): 5.81
- pIC50 (HCK): 5.82
SMILES: Cc1ccc(-c2nn(CCN3CCC(N(C)C)CC3)c3ncnc(N)c23)cc1 [7i]

- decrease in SRC inhibitory activity relative to 11a (SRC): > 200 fold
SMILES: CN(C)C1CCN(CCn2nc(-c3ccc(NC(=O)OC(C)(C)C)c(O)c3)c3c(N)ncnc32)CC1 [12s]
- decrease in antiproliferative activity relative to 11a (MDA-MB-231 cells [1]): > 200 fold

SMILES: Cc1ccc(-c2nn(CCN3CCN(C)CC3)c3ncnc(N)c23)cc1 [7d]
- cell proliferation (% confluence over time) (MCF7 cells [12]; single dose 100 μM, 5 d, time-lapse imaging): strong inhibition of cell proliferation

- plasma protein bound [13]: 99–100%
SMILES: CC(=O)CC(c1ccccc1)c1c(O)c2ccccc2oc1=O (stereo not drawn) [Warfarin]

- pIC50 (FGR; [15]): 6.22
- pIC50 (FRK/PTK5): 5.43
- pIC50 (LCK): 5.36
- pIC50 (HCK): 4.93
- pIC50 (LYN): 5.60
SMILES: Cc1ccc(-c2nn(CCN3CCC(CCN(C)C)CC3)c3ncnc(N)c23)cc1 [7k]

- pIC50 (FGR): 8.12
SMILES: Cc1ccc(-c2nn(C(C)(C)C)c3ncnc(N)c23)cc1 [PP1, reference compound]

- pEC50 (MCF7 cells [6]): 5.31
SMILES: COc1cc(-c2nn(CCN3CCC(N(C)C)CC3)c3ncnc(N)c23)ccc1N [12g]
